Patent publication US20100029710A1, “COMPOUNDS HAVING BOTH ANGIOTENSIN II RECEPTOR ANTAGONISM AND PPARy ACTIVATING ACTIVITIES” (Pfizer Products Inc., priority 2006, published 2010)
pEC50, pIC50: −log10 of the molar value.

Columns and labels:
[1] = target: T1, Human recombinant AT1 receptor (Homo sapiens, UniProt P30556); assay: AT1 receptor radioligand binding (flashplate); settings: 125I Sar1,Ile8-Angiotensin II radioligand
T1 construct: purchased
T1 sequence (P30556 1-359): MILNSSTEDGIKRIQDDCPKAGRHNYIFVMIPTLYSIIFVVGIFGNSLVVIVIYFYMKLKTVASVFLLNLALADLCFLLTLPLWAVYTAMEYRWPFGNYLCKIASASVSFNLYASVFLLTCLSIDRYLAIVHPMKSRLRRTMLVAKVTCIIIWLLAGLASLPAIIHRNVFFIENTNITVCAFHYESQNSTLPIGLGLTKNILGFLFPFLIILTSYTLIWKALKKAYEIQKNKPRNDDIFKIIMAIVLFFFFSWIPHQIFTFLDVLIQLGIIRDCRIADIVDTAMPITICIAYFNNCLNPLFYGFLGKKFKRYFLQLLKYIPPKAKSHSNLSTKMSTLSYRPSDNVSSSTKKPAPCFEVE
Description: Angiotensin II receptor antagonist activity may be determined using commercially available flashplates coated with the AT1 or AT2 receptor which provide a rapid and high throughput means to evaluate compounds compared to traditional filtration based assays (Regina M. Van Der Hee et al., Journal of Biomolecular Screening 10(2); 2005; 118-126).
AT1 receptor affinity was determined in a radioligand binding format using commercially available flashplate technology. Human recombinant AT1 receptor were coated on the wells of a 96 well flashplate and test compounds were diluted and added to wells at a final concentration range of 50 μM to 1 μM. Total binding was determined in the absence of compound and non-specific binding in the presence of 10 μM cold Angiotensin II. ^125I labeled Sar^1, Ile^8-Angiotensin II was added to all wells at Kd concentration and left for 2 hours at room temperature to equilibrate. Plates were read on a TopCount (Perkin Elmer) and concentration-response curves constructed using commercial curve fitting software. The Ki was determined via interpolation and the use of the Cheng-Prussof equation.

[2] = target: T2, human PPARγ LBD bound to Gal4 DBD (Homo sapiens, UniProt P37231); assay: PPARγ transfection luciferase reporter assay in HepG2 cells; assay type: cell-based; settings: for Emax: HepG2, 24 h, compared to full agonist response (standard TZD full agonist), read-out: PPARγ % activation; for pEC50: HepG2, 24 hours exposure
T2 construct: expressed in transfected cells; host or cells: HepG2
T2 sequence (P37231 238-503 limits assumed): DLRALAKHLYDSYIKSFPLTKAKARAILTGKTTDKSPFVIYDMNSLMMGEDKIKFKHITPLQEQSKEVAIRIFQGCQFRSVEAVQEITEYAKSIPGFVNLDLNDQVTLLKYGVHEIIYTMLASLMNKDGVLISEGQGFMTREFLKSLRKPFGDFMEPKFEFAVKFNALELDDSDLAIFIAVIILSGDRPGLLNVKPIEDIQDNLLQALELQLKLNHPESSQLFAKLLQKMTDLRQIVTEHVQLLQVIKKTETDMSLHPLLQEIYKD
Description: PPARγ agonist activity may be determined by a cell line transiently transfected with PPARγ bound to a DNA binding domain that controls luciferase expression. The degree of receptor agonism is measured by the amount of luciferase activity after compound treatment. The ratio of treated cells over vehicle control cells provides a measure of fold activation and allows an EC50 (shown in tables I and II as […] EC50) and % activation to be calculated
A human hepatocellular carcinoma cell line (HepG2) was subcultured into dishes and transiently transfected with DNA to allow expression of human PPARγ LBD bound to Gal4 DBD. Luciferase reporter gene and β-galactosidase control genes were co-transfected to enable activity to be measured. After 24 hours, cells were exposed to compounds in the concentration range of 0.1 nM-100 μM and left for a further 24 hours. Luciferase activity is determined by luminometry and PPARγ activation is expressed as a ratio of luciferase activity to β-galactosidase activity to account for transfection efficiency. Potency is described by an EC50 defined as the concentration of compound producing receptor activation equivalent to 50% of the maximum for that compound (shown in Table I as transfection EC50). The maximum fold activation is a measure of efficacy and is expressed as a percentage of a reference full agonist run in the same assay. Efficacy is described by % activation of receptor relative to a standard thiazolidinedione (TZD) full agonist.

Question: How did the pIC50 [1] turn out when CCc1nc2c(C)cc(CC[C@H](C)O)nc2n1[C@H]1CCc2cc(-c3ccccc3-c3nnn[nH]3)ccc21 [Example 36, (S)-4-(3-((1S)-5-(2-(1H-tetrazol-5-yl)phenyl)-2,3-dihydro-1H-inden-1-yl)-2-ethyl-7-methyl-3H-imidazo[4,5-b]pyridin-5-yl)butan-2-ol] was run?
Answer: Its pIC50 is 8.92.

Question: And the Emax [2]?
Answer: Its Emax is 30%.

Question: And the pEC50 [2]?
Answer: Its pEC50 is 6.67.

Question: With CCc1nc2c(C)cc(COC(C)(C)C)nc2n1[C@H]1CCc2cc(-c3ccccc3-c3nnn[nH]3)ccc21 [Example 5, 3-((1S)-5-(2-(1H-tetrazol-5-yl)phenyl)-2,3-dihydro-1H-inden-1-yl)-5-(tert-butoxymethyl)-2-ethyl-7-methyl-3H-imidazo[4,5-b]pyridine] as the molecule, how does the pIC50 [1] read?
Answer: The pIC50 was 8.54.

Question: And the Emax [2]?
Answer: Its Emax is 48%.

Question: And the pEC50 [2]?
Answer: The pEC50 was 6.54.

Question: CCc1nc2c(C)cc(CCc3ccccc3C)nc2n1[C@H]1CCc2cc(-c3ccccc3-c3nnn[nH]3)ccc21 [Example 28, ((1S)-5-(2-(1H-tetrazol-5-yl)phenyl)-2,3-dihydro-1H-inden-1-yl)-5-(2-methylphenethyl)-2-ethyl-7-methyl-3H-imidazo[4,5-b]pyridine] was tested. Which pIC50 [1] did it give?
Answer: The pIC50 was 8.66.

Question: And the Emax [2]?
Answer: The Emax was 15%.

Question: What about the pEC50 [2] of the same molecule?
Answer: Its pEC50 is 6.48.

Question: Which results are given for CCc1nc2c(C)cc(CCc3cccc(OC)c3)nc2n1[C@H]1CCc2cc(-c3ccccc3-c3nnn[nH]3)ccc21 [Example 29, 3-((1S)-5-(2-(1H-tetrazol-5-yl)phenyl)-2,3-dihydro-1H-inden-1-yl)-5-(3-methoxyphenethyl)-2-ethyl-7-methyl-3H-imidazo[4,5-b]pyridine]?
Answer: pIC50 [1]: 8.54; Emax [2]: 31%; pEC50 [2]: 6.71

Question: What does the source list for CCc1nc2c(C)cc(CCC(O)CC)nc2n1[C@H]1CCc2cc(-c3ccccc3-c3nnn[nH]3)ccc21 (stereo partly drawn) [Example 44, 1-(3-((1S)-5-(2-(1H-tetrazol-5-yl)phenyl)-2,3-dihydro-1H-inden-1-yl)-2-ethyl-7-methyl-3H-imidazo[4,5-b]pyridin-5-yl)pentan-3-ol]?
Answer: pIC50 [1]: 8.96; Emax [2]: 38%; pEC50 [2]: 6.32

Question: Which results are given for CCc1nc2c(C)cc([C@@H](O)c3ccccc3)nc2n1[C@H]1CCc2cc(-c3ccccc3-c3nnn[nH]3)ccc21 (single isomer, unassigned) [Example 8a]?
Answer: pIC50 [1]: 8.89; Emax [2]: 16%; pEC50 [2]: 7.22

Question: Which results are given for CCc1nc2c(C)cc(CC[C@@H](O)C(C)C)nc2n1[C@H]1CCc2cc(-c3ccccc3-c3nnn[nH]3)ccc21 [Example 57, (R)-1-(3-((1S)-5-(2-(1H-tetrazol-5-yl)phenyl)-2,3-dihydro-1H-inden-1-yl)-2-ethyl-7-methyl-3H-imidazo[4,5-b]pyridin-5-yl)-4-methyl pentan-3-ol]?
Answer: pIC50 [1]: 8.60; Emax [2]: 28%; pEC50 [2]: 6.55

Question: How did the pIC50 [1] turn out when CCCc1nc2c(C)cc(CC[C@@H](C)O)nc2n1[C@H]1CCc2cc(-c3ccccc3-c3nnn[nH]3)ccc21 [Example 40, (R)-4-(3-((1S)-5-(2-(1H-tetrazol-5-yl)phenyl)-2,3-dihydro-1H-inden-1-yl)-7-methyl-2-propyl-3H-imidazo[4,5-b]pyridin-5-yl)butan-2-ol] was run?
Answer: The pIC50 was 9.10.

Question: What about the Emax [2] of the same molecule?
Answer: Its Emax is 20%.

Question: And the pEC50 [2]?
Answer: The pEC50 was 6.11.

Question: CCc1nc2c(C)cc(CCC(C)(C)O)nc2n1[C@H]1CCc2cc(-c3ccccc3-c3nnn[nH]3)ccc21 [Example 53, 4-(3-((1S)-5-(2-(1H-tetrazol-5-yl)phenyl)-2,3-dihydro-1H-inden-1-yl)-2-ethyl-7-methyl-3H-imidazo[4,5-b]pyridin-5-yl)-2-methylbutan-2-ol] was tested. Which pIC50 [1] did it give?
Answer: Its pIC50 is 8.85.

Question: And the Emax [2]?
Answer: The Emax was 30%.

Question: And the pEC50 [2]?
Answer: Its pEC50 is 6.67.

Question: Which results are given for CCc1nc2c(C)cc(CC(O)C3CC3)nc2n1[C@H]1CCc2cc(-c3ccccc3-c3nnn[nH]3)ccc21 (stereo partly drawn) [Example 19, 2 (3-((1S)-5-(2-(1H-tetrazol-5-yl)phenyl)-2,3-dihydro-1H-inden-1-yl)-2-ethyl-7-methyl-3H-imidazo[4,5-b]pyridin-5-yl)-1-cyclopropylethanol]?
Answer: pIC50 [1]: 8.14; Emax [2]: 20%; pEC50 [2]: 6.98

Question: CCc1nc2c(C)cc(CCCO)nc2n1[C@H]1CCc2cc(-c3ccccc3-c3nnn[nH]3)ccc21 [Example 47, 3-(3-((1S)-5-(2-(1H-tetrazol-5-yl)phenyl)-2,3-dihydro-1H-inden-1-yl)-2-ethyl-7-methyl-3H-imidazo[4,5-b]pyridin-5-yl)propan-1-ol] was tested. Which pIC50 [1] did it give?
Answer: Its pIC50 is 8.89.

Question: And the Emax [2]?
Answer: The Emax was 34%.

Question: And the pEC50 [2]?
Answer: Its pEC50 is 6.26.

Question: CCc1nc2c(C)cc(CC3CCCCC3=O)nc2n1[C@H]1CCc2cc(-c3ccccc3-c3nnn[nH]3)ccc21 (stereo partly drawn) [Example 63, 2-((3-((1S)-5-(2-(1H-tetrazol-5-yl)phenyl)-2,3-dihydro-1H-inden-1-yl)-2-ethyl-7-methyl-3H-imidazo[4,5-b]pyridin-5-yl)methyl)cyclohexanone] was tested. Which pIC50 [1] did it give?
Answer: Its pIC50 is 8.62.

Question: And the Emax [2]?
Answer: The Emax was 27%.

Question: And the pEC50 [2]?
Answer: The pEC50 was 6.53.

Question: How did the pIC50 [1] turn out when CCc1nc2c(C)cc(/C=C/COC)nc2n1[C@H]1CCc2cc(-c3ccccc3-c3nnn[nH]3)ccc21 [Example 23, 3-((1S)-5-(2-(1H-tetrazol-5-yl)phenyl)-2,3-dihydro-1H-inden-1-yl)-2-ethyl-5-((E)-3-methoxyprop-1-enyl)-7-methyl-3H-imidazo[4,5-b]pyridine] was run?
Answer: Its pIC50 is 8.32.

Question: And the Emax [2]?
Answer: Its Emax is 26%.

Question: What about the pEC50 [2] of the same molecule?
Answer: The pEC50 was 6.66.

Question: How did the pIC50 [1] turn out when CCc1nc2c(C)cc(CC[C@H](C)OC)nc2n1[C@H]1CCc2cc(-c3ccccc3-c3nnn[nH]3)ccc21 [Example 38, 3-((1S)-5-(2-(1H-tetrazol-5-yl)phenyl)-2,3-dihydro-1H-inden-1-yl)-2-ethyl-5-((S)-3-methoxybutyl)-7-methyl-3H-imidazo[4,5-b]pyridine] was run?
Answer: The pIC50 was 8.70.

Question: And the Emax [2]?
Answer: Its Emax is 21%.

Question: And the pEC50 [2]?
Answer: Its pEC50 is 6.67.

Question: CCc1nc2c(C)cc(Cc3ccccn3)nc2n1[C@H]1CCc2cc(-c3ccccc3-c3nnn[nH]3)ccc21 [Example 2, 3-((1S)-5-(2-(1H-tetrazol-5-yl)phenyl)-2,3-dihydro-1H-inden-1-yl)-2-ethyl-7-methyl-5-(pyridin-2-ylmethyl)-3H-imidazo[4,5-b]pyridine] was tested. Which pIC50 [1] did it give?
Answer: The pIC50 was 8.46.

Question: What about the Emax [2] of the same molecule?
Answer: Its Emax is 29%.

Question: What about the pEC50 [2] of the same molecule?
Answer: Its pEC50 is 6.98.

Question: Which results are given for CCc1nc2c(C)cc(CCc3ccccc3)nc2n1[C@H]1CCc2cc(-c3ccccc3-c3nnn[nH]3)ccc21 [Example 30, 3-((1S)-5-(2-(1H-tetrazol-5-yl)phenyl)-2,3-dihydro-1H-inden-1-yl)-2-ethyl-7-methyl-5-phenethyl-3H-imidazo[4,5-b]pyridine]?
Answer: pIC50 [1]: 8.22; Emax [2]: 28%; pEC50 [2]: 6.80

Question: What does the source list for CCc1nc2c(C)cc(Cc3ccccc3)nc2n1[C@H]1CCc2cc(-c3ccccc3-c3nnn[nH]3)ccc21 [Example 1, 3-((1S)-5-(2-(1H-tetrazol-5-yl)phenyl)-2,3-dihydro-1H-inden-1-yl)-5-benzyl-2-ethyl-7-methyl-3H-imidazo[4,5-b]pyridine]?
Answer: pIC50 [1]: 8.35; Emax [2]: 27%; pEC50 [2]: 7.05

Question: How did the pIC50 [1] turn out when CCCc1nc2c(C)cc(CCC(C)(O)c3ccccc3)nc2n1[C@H]1CCc2cc(-c3ccccc3-c3nnn[nH]3)ccc21 (stereo partly drawn) [Example 51, 4-(3-((1S)-5-(2-(1H-tetrazol-5-yl)phenyl)-2,3-dihydro-1H-inden-1-yl)-7-methyl-2-propyl-3H-imidazo[4,5-b]pyridin-5-yl)-2-phenylbutan-2-ol] was run?
Answer: Its pIC50 is 8.68.

Question: And the Emax [2]?
Answer: The Emax was 36%.

Question: And the pEC50 [2]?
Answer: The pEC50 was 6.89.

Question: How did the pIC50 [1] turn out when CCc1nc2c(C)cc(CC3CCCC3O)nc2n1[C@H]1CCc2cc(-c3ccccc3-c3nnn[nH]3)ccc21 (single isomer, unassigned) [Example 65] was run?
Answer: Its pIC50 is 8.64.

Question: What about the Emax [2] of the same molecule?
Answer: Its Emax is 22%.

Question: What about the pEC50 [2] of the same molecule?
Answer: Its pEC50 is 6.61.
